According to patent US9968536B2, “Composition comprising isosorbide monoesters and isosorbide diesters” (Clariant International Ltd., priority 2011, dated 2018):

Assay: Determination of the thickener performance in mixture A
Format: physicochemical
Conditions: for Viscosity: 1% by weight added to mixture A (15% by weight in water, sodium laureth-2 sulfate:cocobetain 8:2), mixture A alone 135; for thickener performance (in words): 1% by weight in mixture A, summary of Table 1
Text: Using Genapol® LRO (sodium laureth-2 sulfate, 27% by weight in water) and Genagen® KB (cocobetain, 30% by weight in water) and additionally water, a 15% by weight mixture in water comprising the two surfactants in a weight ratio of 8:2 (hereinbelow referred to as “mixture A”) is obtained.

Row | Compound | Viscosity [mPa · s] | thickener performance (in words)
1 | O[C@@H]1CO[C@H]2[C@@H]1OC[C@@H]2O [isosorbide] | 160 | not worth mentioning
2 | isosorbide dicaprylate | 2390 | significant thickening
